Measurements: PubChem BioAssay (NCI)
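Interpolation was linear, between the two tested concentrations surrounding the appropriate level; five concentrations were tested over 48 hours in 96-well plates. TGI: concentration producing complete growth inhibition.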

Experiments:
Experiment in all cases: inhibition of tumour cell growth, NCI panel, 48 h
U251 CNS = test system: U251 CNS
NCI-H226 lung = test system: NCI-H226 lung
SF-295 CNS = test system: SF-295 CNS
NCI-H522 lung = test system: NCI-H522 lung
MOLT-4 leukemia = test system: MOLT-4 leukemia
SW-620 colon = test system: SW-620 colon
SK-MEL-28 melanoma = test system: SK-MEL-28 melanoma
MALME-3M melanoma = test system: MALME-3M melanoma
HOP-92 NSCLC = test system: HOP-92 NSCLC
K-562 leukemia = test system: K-562 leukemia
OVCAR-4 ovarian = test system: OVCAR-4 ovarian
COLO 205 colon = test system: COLO 205 colon
SNB-19 CNS = test system: SNB-19 CNS
EKVX NSCLC = test system: EKVX NSCLC
DU-145 prostate = test system: DU-145 prostate
HCT-116 colon = test system: HCT-116 colon
A549 NSCLC = test system: A549 NSCLC
BT-549 breast = test system: BT-549 breast
MDA-MB-231 breast = test system: MDA-MB-231 breast
A498 renal = test system: A498 renal
SR leukemia = test system: SR leukemia
SK-OV-3 ovarian = test system: SK-OV-3 ovarian
HT29 colon = test system: HT29 colon
PC-3 prostate = test system: PC-3 prostate
HCT-15 colon = test system: HCT-15 colon
SK-MEL-2 melanoma = test system: SK-MEL-2 melanoma
LOX IMVI melanoma = test system: LOX IMVI melanoma
OVCAR-8 ovarian = test system: OVCAR-8 ovarian
OVCAR-3 ovarian = test system: OVCAR-3 ovarian
CAKI-1 renal = test system: CAKI-1 renal
MDA-MB-435 = test system: MDA-MB-435
UACC-62 melanoma = test system: UACC-62 melanoma
T-47D breast = test system: T-47D breast
SF-268 CNS = test system: SF-268 CNS
HS 578T breast = test system: HS 578T breast
SK-MEL-5 melanoma = test system: SK-MEL-5 melanoma
M14 melanoma = test system: M14 melanoma
HCC-2998 colon = test system: HCC-2998 colon
UO-31 renal = test system: UO-31 renal
IGROV1 ovarian = test system: IGROV1 ovarian
CCRF-CEM leukemia = test system: CCRF-CEM leukemia
SNB-75 CNS = test system: SNB-75 CNS
NCI-H460 lung = test system: NCI-H460 lung
NCI/ADR-RES ovarian = test system: NCI/ADR-RES ovarian
HOP-62 NSCLC = test system: HOP-62 NSCLC
RXF 393 renal = test system: RXF 393 renal
NCI-H23 lung = test system: NCI-H23 lung
HL-60(TB) leukemia = test system: HL-60(TB) leukemia
RPMI-8226 leukemia = test system: RPMI-8226 leukemia
OVCAR-5 ovarian = test system: OVCAR-5 ovarian
TK-10 renal = test system: TK-10 renal
UACC-257 melanoma = test system: UACC-257 melanoma
786-0 renal = test system: 786-0 renal
KM12 colon = test system: KM12 colon
ACHN renal = test system: ACHN renal
SF-539 CNS = test system: SF-539 CNS
SN12C renal = test system: SN12C renal
MCF7 breast = test system: MCF7 breast

COC(=O)[C@](NC(=O)OCc1ccccc1)([C@@H](C)S(=O)c1ccc(C)cc1)C(F)(F)F (stereo partly drawn) was tested, and the TGI (U251 CNS) was over 100 µM, the TGI (NCI-H226 lung) was over 100 µM and the TGI (SF-295 CNS) was over 100 µM. It also gave a TGI (NCI-H522 lung) of over 100 µM, a TGI (MOLT-4 leukemia) of 70 µM and a TGI (SW-620 colon) of over 100 µM. It also gave a TGI (SK-MEL-28 melanoma) of over 100 µM, a TGI (MALME-3M melanoma) of over 100 µM and a TGI (HOP-92 NSCLC) of 96.4 µM. It also gave a TGI (K-562 leukemia) of over 100 µM, a TGI (OVCAR-4 ovarian) of 89.2 µM and a TGI (COLO 205 colon) of 64.7 µM. The TGI (SNB-19 CNS) was over 100 µM, the TGI (EKVX NSCLC) was over 100 µM and the TGI (DU-145 prostate) was over 100 µM. It also gave a TGI (HCT-116 colon) of over 100 µM, a TGI (A549 NSCLC) of over 100 µM and a TGI (BT-549 breast) of 88.8 µM. The TGI (MDA-MB-231 breast) was over 100 µM, the TGI (A498 renal) was 95.8 µM and the TGI (SR leukemia) was 61.5 µM. For the same compound, the TGI (SK-OV-3 ovarian) was over 100 µM, the TGI (HT29 colon) was 67 µM and the TGI (PC-3 prostate) was over 100 µM. It also gave a TGI (HCT-15 colon) of over 100 µM, a TGI (SK-MEL-2 melanoma) of 48.9 µM and a TGI (LOX IMVI melanoma) of over 100 µM. For the same compound, the TGI (OVCAR-8 ovarian) was over 100 µM, the TGI (OVCAR-3 ovarian) was over 100 µM and the TGI (CAKI-1 renal) was over 100 µM. The TGI (MDA-MB-435) was over 100 µM, the TGI (UACC-62 melanoma) was over 100 µM and the TGI (T-47D breast) was over 100 µM. The TGI (SF-268 CNS) was over 100 µM, the TGI (HS 578T breast) was over 100 µM and the TGI (SK-MEL-5 melanoma) was 33.1 µM. The TGI (M14 melanoma) was over 100 µM, the TGI (HCC-2998 colon) was over 100 µM and the TGI (UO-31 renal) was 95.9 µM. For the same compound, the TGI (IGROV1 ovarian) was over 100 µM, the TGI (CCRF-CEM leukemia) was 92 µM and the TGI (SNB-75 CNS) was over 100 µM. It also gave a TGI (NCI-H460 lung) of over 100 µM, a TGI (NCI/ADR-RES ovarian) of over 100 µM and a TGI (HOP-62 NSCLC) of over 100 µM. The TGI (RXF 393 renal) was 65.8 µM, the TGI (NCI-H23 lung) was 95.1 µM and the TGI (HL-60(TB) leukemia) was 38.9 µM. For the same compound, the TGI (RPMI-8226 leukemia) was over 100 µM, the TGI (OVCAR-5 ovarian) was over 100 µM and the TGI (TK-10 renal) was 70 µM. The TGI (UACC-257 melanoma) was 86.6 µM, the TGI (786-0 renal) was over 100 µM and the TGI (KM12 colon) was over 100 µM. The TGI (ACHN renal) was over 100 µM.

With N#Cc1c(-c2ccc([N+](=O)[O-])cc2)cc(-c2ccc(Nc3ccnc4cc(C(F)(F)F)ccc34)cc2)[nH]c1=O the TGI (U251 CNS) was 21.9 µM, the TGI (NCI-H226 lung) was over 100 µM and the TGI (SF-295 CNS) was over 100 µM. The TGI (NCI-H522 lung) was over 100 µM, the TGI (MOLT-4 leukemia) was over 100 µM and the TGI (SW-620 colon) was over 100 µM. The TGI (SK-MEL-28 melanoma) was over 100 µM, the TGI (MALME-3M melanoma) was over 100 µM and the TGI (K-562 leukemia) was over 100 µM. For the same compound, the TGI (OVCAR-4 ovarian) was over 100 µM, the TGI (COLO 205 colon) was 29.1 µM and the TGI (SNB-19 CNS) was 82.7 µM. For the same compound, the TGI (EKVX NSCLC) was over 100 µM, the TGI (DU-145 prostate) was over 100 µM and the TGI (HCT-116 colon) was 66.1 µM. It also gave a TGI (A549 NSCLC) of over 100 µM, a TGI (BT-549 breast) of over 100 µM and a TGI (MDA-MB-231 breast) of 44.7 µM. It also gave a TGI (SF-539 CNS) of over 100 µM, a TGI (A498 renal) of over 100 µM and a TGI (SR leukemia) of over 100 µM. It also gave a TGI (SK-OV-3 ovarian) of over 100 µM, a TGI (HT29 colon) of over 100 µM and a TGI (PC-3 prostate) of over 100 µM. It also gave a TGI (HCT-15 colon) of over 100 µM, a TGI (SK-MEL-2 melanoma) of over 100 µM and a TGI (LOX IMVI melanoma) of over 100 µM. For the same compound, the TGI (OVCAR-8 ovarian) was over 100 µM, the TGI (CAKI-1 renal) was over 100 µM and the TGI (SN12C renal) was over 100 µM. The TGI (MDA-MB-435) was over 100 µM, the TGI (UACC-62 melanoma) was over 100 µM and the TGI (T-47D breast) was over 100 µM. For the same compound, the TGI (SF-268 CNS) was over 100 µM, the TGI (SK-MEL-5 melanoma) was over 100 µM and the TGI (M14 melanoma) was over 100 µM. It also gave a TGI (HCC-2998 colon) of over 100 µM, a TGI (UO-31 renal) of over 100 µM and a TGI (IGROV1 ovarian) of over 100 µM. It also gave a TGI (CCRF-CEM leukemia) of over 100 µM, a TGI (MCF7 breast) of over 100 µM and a TGI (SNB-75 CNS) of over 100 µM. It also gave a TGI (NCI-H460 lung) of over 100 µM, a TGI (NCI/ADR-RES ovarian) of over 100 µM and a TGI (HOP-62 NSCLC) of over 100 µM. It also gave a TGI (RXF 393 renal) of over 100 µM, a TGI (NCI-H23 lung) of over 100 µM and a TGI (RPMI-8226 leukemia) of over 100 µM. It also gave a TGI (OVCAR-5 ovarian) of 40.1 µM, a TGI (TK-10 renal) of over 100 µM and a TGI (UACC-257 melanoma) of over 100 µM. It also gave a TGI (786-0 renal) of over 100 µM and a TGI (ACHN renal) of over 100 µM.
